Measured values taken from patent US20240166643A1, “IMIDAZO[1,2-A]PYRIDINE COMPOUNDS AND THEIR USE IN THERAPY” (Imperial College Innovations Limited, priority 2020, published 2024).
Read-outs that look alike come from different tables or passages of the source.

Assays:
[1] = molecular target: Human NMT1 (HsNMT1) (Homo sapiens, UniProt P30419); assay: biochemical
[2] = system: Plasmodium falciparum 3D7; assay: SYBR Green assay, Plasmodium falciparum strain 3D7; assay type: cell-based; settings: P. falciparum strain 3D7, 96 h incubation, read-out: Pf EC50 strain 3D7
[3] = molecular target: Plasmodium vivax (Pv) NMT (Plasmodium vivax (strain Salvador I), UniProt A5K1A2); assay: biochemical
[4] = system: SU-DHL-10 cells; assay: Cell cytotoxicity in SU-DHL-10 cell line (CellTiter-Glo); assay type: cell-based; settings: Homo sapiens, read-out: SU-DHL-10 EC50
Procedure: Assay (c): Cell Cytotoxicity in SU-DHL-10 Cell Line
Cell Culture: SU-DHL-10 (ATCC CRL-2963) were cultured in RPMI-media (ATCC, 30-2001).
Cultures were maintained by the addition of fresh medium and inoculum of 8.0×10^4 to 2.0×10^5 cells/mL. Subculturing was done when the cell density was between 1.0×10^6 and 2.0×10^6 cells/mL.
Cell seeding: 5000 cells/well were plated in 384-white clear bottom plates (Greiner, 781098) for the assay in 20 μl growth media.
Top dose: 1 mM stocks of each compound was prepared in 100% DMSO and thereafter diluted 333.33 fold in growth media to obtain 3 μM (0.3% DMSO) mid stock of each compound, from which 10 μl was added to assay wells (with 20 μl cells) for a final concentration of 1 μM (0.1% DMSO). For subsequent dose-response: 1 mM stock was diluted 3 fold in DMSO before subjecting to above dilution pattern to obtain final 0.1% DMSO concentration.
Treatment: Cells were incubated with the compounds for 48 h at 37° C. in presence of 5% CO2.
Assay Procedure: The assay plate and its contents were equilibrated at room temperature for approximately 30 minutes. CellTiter-Glo® Reagent was added equal to the volume (1;1) of cell culture medium present in each well. The contents were mixed for 5 minutes on an orbital shaker to induce cell lysis. The plate was allowed to incubate at room temperature for 10 minutes to stabilize luminescent signal. The luminescence was recorded with an integration time of 0.25 seconds in EnVision 2104 Multilabel Plate Reader (Perkin Elmer).
Calculation: % Cytotoxicity was calculated considering 100% cell death in wells treated with 0.1% TritonX.

Chain of Human NMT1 (HsNMT1) (P30419 whole entry, looked up): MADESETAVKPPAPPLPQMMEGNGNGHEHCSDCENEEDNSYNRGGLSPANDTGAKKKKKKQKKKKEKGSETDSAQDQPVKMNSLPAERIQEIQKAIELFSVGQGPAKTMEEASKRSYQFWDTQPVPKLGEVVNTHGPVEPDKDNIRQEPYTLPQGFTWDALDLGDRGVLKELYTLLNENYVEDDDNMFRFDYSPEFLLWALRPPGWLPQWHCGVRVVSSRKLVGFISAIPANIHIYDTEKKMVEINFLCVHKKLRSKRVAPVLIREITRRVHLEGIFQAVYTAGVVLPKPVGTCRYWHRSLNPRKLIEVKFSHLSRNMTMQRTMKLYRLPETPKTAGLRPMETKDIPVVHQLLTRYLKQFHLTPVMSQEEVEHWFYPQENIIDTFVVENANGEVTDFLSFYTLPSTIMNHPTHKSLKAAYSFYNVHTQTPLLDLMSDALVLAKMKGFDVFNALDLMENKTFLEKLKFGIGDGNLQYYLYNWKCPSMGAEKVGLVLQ
Chain of Plasmodium vivax (Pv) NMT (A5K1A2 1-410): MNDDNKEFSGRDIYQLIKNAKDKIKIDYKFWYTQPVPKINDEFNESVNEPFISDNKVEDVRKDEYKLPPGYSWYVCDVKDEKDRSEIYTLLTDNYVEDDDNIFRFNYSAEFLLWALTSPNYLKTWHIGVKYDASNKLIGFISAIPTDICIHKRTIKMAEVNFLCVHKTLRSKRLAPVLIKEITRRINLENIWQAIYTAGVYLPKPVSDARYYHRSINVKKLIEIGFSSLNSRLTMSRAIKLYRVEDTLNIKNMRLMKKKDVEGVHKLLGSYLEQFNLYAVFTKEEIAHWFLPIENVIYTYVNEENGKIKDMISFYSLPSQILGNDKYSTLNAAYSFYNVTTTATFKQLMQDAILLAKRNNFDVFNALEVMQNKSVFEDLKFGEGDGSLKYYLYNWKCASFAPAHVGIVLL

SMILES	IC50 [1]	EC50 ([4]; SU-DHL10, CellTiter-Glo, 48 h)	also measured
C[C@@H]1CN(c2ncc(F)c(N3CC(C(=O)NC(C)(C)c4cnc5ccccn45)C3)n2)C[C@@H](C)N1C [Example 93, 1-{5-fluoro-2-[(3R,5R)-3,4,5-trimethylpiperazin-1-yl]pyrimidin-4-yl}-N-(2-{imidazo[1,2-a]pyridin-3-yl}propan-2-yl)azetidine-3-carboxamide]	250 nM		EC50 [2]: 860 nM; IC50 [3]: 59 nM
Cc1ccc2ncc(C(C)(C)NC(=O)C3CN(c4nc(N5CCN(C)[C@H](C)C5)ncc4F)C3)n2c1 [Example 97, 1-{2-[(3R)-3,4-dimethylpiperazin-1-yl}-5-fluoropyrimidin-4-yl}-N-(2-{6-methylimidazo[1,2-a]pyridin-3-yl}propan-2-yl)azetidine-3-carboxamide]	25.7 nM		EC50 [2]: 69 nM; IC50 [3]: 4.9 nM
Cc1ccc2ncc(C(C)(C)NC(=O)C3CN(c4nc(N5CCN(C)[C@H](C)C5)ncc4Cl)C3)n2c1 [Example 98, 1-{5-chloro-2-[(3R)-3,4-dimethylpiperazin-1-yl]pyrimidin-4-yl}-N-(2-{6-methylimidazo[1,2-a]pyridin-3-yl}propan-2-yl)azetidine-3-carboxamide]	5.4 nM		EC50 [2]: 7 nM; IC50 [3]: 5.8 nM
CN1CCCN(c2nc(N3CC(C(=O)NC(C)(C)c4cnc5ccccn45)C3)c3ccsc3n2)CC1 [Example 113, N-(2-(imidazo[1,2-a]pyridin-3-yl)propan-2-yl)-1-(2-(4-methyl-1,4-diazepan-1-yl)thieno[2,3-d]pyrimidin-4-yl)azetidine-3-carboxamide]	5 nM	33 nM	
CN1CCCN(c2nc3c(c(N4CC(C(=O)NC(C)(C)c5cnc6ccccn56)C4)n2)CCC3)CC1 [Example 114, N-(2-(imidazo[1,2-a]pyridin-3-yl)propan-2-yl)-1-(2-(4-methyl-1,4-diazepan-1-yl)-6,7-dihydro-5H-cyclopenta[d]pyrimidin-4-yl)azetidine-3-carboxamide]		65 nM	
Cc1nc(N2CCCN(C)CC2)nc(N2CC(C(=O)NC(C)(C)c3cnc4ccccn34)C2)c1Cl [Example 115, 1-(5-chloro-6-methyl-2-(4-methyl-1,4-diazepan-1-yl)pyrimidin-4-yl)-N-(2-(imidazo[1,2-a]pyridin-3-yl)propan-2-yl)azetidine-3-carboxamide]		54 nM	
Cc1cc2nc(N3CCCN(C)CC3)nc(N3CC(C(=O)NC(C)(C)c4cnc5ccccn45)C3)c2s1 [Example 116, N-(2-(imidazo[1,2-a]pyridin-3-yl)propan-2-yl)-1-(6-methyl-2-(4-methyl-1,4-diazepan-1-yl)thieno[3,2-d]pyrimidin-4-yl)azetidine-3-carboxamide]	6 nM		EC50 ([4]; SU-DHL10, 48 h): 74 nM
Cc1cc2c(N3CC(C(=O)NC(C)(C)c4cnc5ccccn45)C3)nc(N3CCCN(C)CC3)nc2s1 [Example 117, N-(2-(imidazo[1,2-a]pyridin-3-yl)propan-2-yl)-1-(6-methyl-2-(4-methyl-1,4-diazepan-1-yl)thieno[2,3-d]pyrimidin-4-yl)azetidine-3-carboxamide]	6 nM	66 nM	
CN(C(=O)C1CN(c2nc(N3CCNCC3)ncc2Cl)C1)C(C)(C)c1cnc2ccccn12 [Example 119, 1-(5-chloro-2-(piperazin-1-yl)pyrimidin-4-yl)-N-(2-(imidazo[1,2-a]pyridin-3-yl)propan-2-yl)-N-methylazetidine-3-carboxamide]		925 nM	
CN(C(=O)C1CN(c2nc(N3CCCNCC3)ncc2Cl)C1)C(C)(C)c1cnc2ccccn12 [Example 120, 1-(5-chloro-2-(1,4-diazepan-1-yl)pyrimidin-4-yl)-N-(2-(Imidazo[1,2-a]pyridin-3-yl)propan-2-yl)-N-methylazetidine-3-carboxamide]		545 nM	
CN1CCCN(c2ncc(Cl)c(N3CC(C(=O)N(C)C(C)(C)c4cnc5ccccn45)C3)n2)CC1 [Example 121, 1-(5-chloro-2-(4-methyl-1,4-diazepan-1-yl)pyrimidin-4-yl)-N-(2-(Imidazo[1,2-a]pyridin-3-yl)propan-2-yl)-N-methylazetidine-3-carboxamide]	4 nM	42 nM	
CN1CCCN(c2nc(N3CC(C(=O)N(C)C(C)(C)c4cnc5ccccn45)C3)c3sccc3n2)CC1 [Example 122, N-(2-(imidazo[1,2-a]pyridin-3-yl)propan-2-yl)-N-methyl-1-(2-(4-methyl-1,4-diazepan-1-yl)thieno[3,2-d]pyrimidin-4-yl)azetidine-3-carboxamide]	4 nM	50 nM	
C[C@@H]1CN(c2ncc(Cl)c(N3CC(C(=O)N(C)C(C)(C)c4cnc5ccccn45)C3)n2)CCN1 [Example 124, (R)-1-(5-chloro-2-(3-methylpiperazin-1-yl)pyrimidin-4-yl)-N-(2-(Imidazo[1,2-a]pyridin-3-yl)propan-2-yl)-N-methylazetidine-3-carboxamide]		448 nM	
C[C@H]1CNCCN1c1nc(N2CC(C(=O)N(C)C(C)(C)c3cnc4ccccn34)C2)c2sccc2n1 [Example 125, (S)—N-(2-(imidazo[1,2-a]pyridin-3-yl)propan-2-yl)-N-methyl-1-(2-(2-methylpiperazin-1-yl)thieno[3,2-d]pyrimidin-4-yl)azetidine-3-carboxamide]		361 nM	
C[C@H]1CNCCN1c1nc(N2CC(C(=O)NC(C)(C)c3cnc4ccccn34)C2)c2sccc2n1 [Example 126, (S)—N-(2-(Imidazo[1,2-a]pyridin-3-yl)propan-2-yl)-1-(2-(2-methylpiperazin-1-yl)thieno[3,2-d]pyrimidin-4-yl)azetidine-3-carboxamide]	5 nM	265 nM	
CN(C(=O)C1CN(c2nc(N3CCNC(C)(C)C3)ncc2Cl)C1)C(C)(C)c1cnc2ccccn12 [Example 127, 1-(5-chloro-2-(3,3-dimethylpiperazin-1-yl)pyrimidin-4-yl)-N-(2-(Imidazo[1,2-a]pyridin-3-yl)propan-2-yl)-N-methylazetidine-3-carboxamide]		609 nM	
CN(C(=O)C1CN(c2nc(N3CCNC4(CC4)C3)ncc2Cl)C1)C(C)(C)c1cnc2ccccn12 [Example 130, 1-(5-chloro-2-(4,7-diazaspiro[2.5]octan-7-yl)pyrimidin-4-yl)-N-(2-(imidazo[1,2-a]pyridin-3-yl)propan-2-yl)-N-methylazetidine-3-carboxamide]	54 nM	547 nM	
CN(C(=O)C1CN(c2nc(N3CC4CCC(C3)N4)ncc2Cl)C1)C(C)(C)c1cnc2ccccn12 [Example 133, 1-(2-(3,8-diazabicyclo[3.2.1]octan-3-yl)-5-chloropyrimidin-4-yl)-N-(2-(imidazo[1,2-a]pyridin-3-yl)propan-2-yl)-N-methylazetidine-3-carboxamide]	62 nM	409 nM	
CC1NCCN(c2ncc(Cl)c(N3CC(C(=O)N(C)C(C)(C)c4cnc5ccccn45)C3)n2)C1C (stereo not drawn) [Example 134, 1-(5-chloro-2-(2,3-dimethylpiperazin-1-yl)pyrimidin-4-yl)-N-(2-(Imidazo[1,2-a]pyridin-3-yl)propan-2-yl)-N-methylazetidine-3-carboxamide]	5 nM	106 nM	
C[C@H]1CNCCN1c1ncc(C(F)(F)F)c(N2CC(C(=O)N(C)C(C)(C)c3cnc4ccccn34)C2)n1 [Example 135, (S)—N-(2-(imidazo[1,2-a]pyridin-3-yl)propan-2-yl)-N-methyl-1-(2-(2-methylpiperazin-1-yl)-5-(trifluoromethyl)pyrimidin-4-yl)azetidine-3-carboxamide]	27 nM	767 nM	
C[C@H]1CN(c2ncc(Cl)c(N3CC(C(=O)N(C)C(C)(C)c4cnc5ccccn45)C3)n2)CCN1 [Example 139, (S)-1-(5-chloro-2-(3-methylpiperazin-1-yl)pyrimidin-4-yl)-N-(2-(Imidazo[1,2-a]pyridin-3-yl)propan-2-yl)-N-methylazetidine-3-carboxamide]		542 nM	
CN(C(=O)C1CN(c2nc(N3CCNCC3(C)C)ncc2Cl)C1)C(C)(C)c1cnc2ccccn12 [Example 149, 1-(5-chloro-2-(2,2-dimethylpiperazin-1-yl)pyrimidin-4-yl)-N-(2-(Imidazo[1,2-a]pyridin-3-yl)propan-2-yl)-N-methylazetidine-3-carboxamide]		145 nM	
CN(C(=O)C1CN(c2nc(N3CCNCC34CC4)ncc2Cl)C1)C(C)(C)c1cnc2ccccn12 [Example 150, 1-(5-chloro-2-(4,7-diazaspiro[2.5]octan-4-yl)pyrimidin-4-yl)-N-(2-(imidazo[1,2-a]pyridin-3-yl)propan-2-yl)-N-methylazetidine-3-carboxamide]		> 1000 nM	
